Laboratory results published in US8039501B2, “Synephrine derivatives useful as anti-inflammatory agents” (Universiteit Gent, priority 2005, dated 2011).

Key:
[1] = system: pE-selectin-Luc (E-selectin promoter); assay: pE-selectin-Luc reporter gene assay in TNF-induced L929sA cells; format: cell-based, mouse; details: 10 microM; TNF-induced; FIG. 1
From the text: L929sA mouse fibroblast cells were stably transfected with pE-selectine-Luc (also referred to as pELAM-luc) by the calcium phosphate precipitation procedure described by De Bosscher et al. in Proc. Natl. Acad. Sci. USA (1997) 94, 13504-13509. The co-transfected plasmid pPGKβGeobpA, conferring resistance to G418 and expressing constitutive β-galactosidase enzymatic activity, was used as an internal control. L929sA cells were transiently transfected by the DEAE-dextran transfection method described by De Bosscher et al. (cited supra).
Recombinant murine tumor necrosis factor (TNF) was produced according to a method standard in the art. Dexamethasone (hereinafter abbreviated as DEX) commercially available from Sigma, and 2-(4-acetoxyphenyl)-2-chloro-N-methyl-ethylammonium chloride (hereinafter abbreviated as compound A) was synthesized according to Louw et al. in Biochemical Pharmacology (1997) 53, 189-197). A stock solution was prepared in ethanol (for DEX) or DMSO (for both comparative compound A and for the compound of example 6 according to this invention, i.e. 1-[4-(benzoyloxy)phenyl]-2-[(tert-butoxy-carbonyl)-methylamino]ethyl-1H-imidazole-1-carboxylate), aliquoted and stored at −70° C.
Induction was performed in triplicate for each independent experiment, which was carried out at least twice. Induction with DEX, compound A, and for the compound of example 6 according to this invention at 1 μM, 10 μM or respectively any other indicated concentration were performed at −2 hours for a total of 8 hours, while TNF (2000 IU/ml) was added at time point zero and left on the cells for 6 hours. After induction, cells were lysed with a lysis buffer (commercially available from Tropix, Bedford, Massachussets) and samples were assayed according to the manufacturer's instructions (Promega Biotech).
In order to investigate whether the inhibitory effect of compound A or the compound of example 6 according to this invention is directed at the transcriptional level of NF-κB-driven genes, the NF-κB-dependent physiological promoter construct, pE-selectin-Luc stably integrated into L929sA cells, was tested. […] DEX-mediated and compound A-mediated inhibition of TNF-induced gene expression were used as controls (FIG. 1). In the appended figures, NI stands for non-induced (either in presence of solvent controls like ethanol or DMSO).

[2] = MTT test, cell viability of L929sA fibroblasts; format: cell-based, murine; details: mouse, L929sA fibroblast cells, read-out: Block of L929sA cell viability
Procedure: The MTT test is a standard assay addressing cell toxicity of a compound. It is based on the principle that after 3-4 hours of cell incubation with MTT (3-(4,5-dimethylthiazole-2-yl)-2,5-diphenyl tetrazolium bromide) so-called purple formazan crystals develop in living and early apoptotic cells. Dead cells don't produce formazan crystals.
Different cell lines were tested. Unless indicated differently, A549 human lung epithelial cells (derived from lung carcinoma) and L929sA murine fibroblast cells were cultured in DMEM with 10% FCS, 100 U/ml penicillin and 100 μg/ml streptomycin. Unless indicated differently, the human multiple myeloma cell lines L363, U266 and MM1.S were cultured in RPMI 1640 with Glutamax-I, supplemented with 10% FCS, 100 U/ml penicillin and 100 μg/ml streptomycin. Cells were seeded at 5000 cells/well (for adherent A549 and L929sA cells) or at 10000 cells/well (for the multiple myeloma lines in suspension) in 96 well plates. Cells were incubated in the presence of the respective synephrine compounds or vehicle (EtOH; for control test) in a final volume of 0.2 ml for 24 or 48 hours at 37° C. Subsequently, 20 μl of MTT solution (5 mg/ml in phosphate-buffered saline) was added to each well. After 4 hours incubation at 37° C., 80 μl of the extraction buffer (10% SDS, 0.01 M HCl) was added. After overnight incubation at room temperature, the optical densities at 590 nm were measured. Results are illustrated in FIGS. 2 to 6 and are expressed as percentage of viable cells as compared to vehicle-treated controls.
In a further MTT test, the activity of the synephrine derivatives on the inhibition of cell viability of non-immune cells was measured. […] Tests were performed for 24 hours and for 48 hours. The results are illustrated by FIGS. 5A and 5B for L929 cells, and by FIGS. 6A and 6B for A549 cells. It was observed that CpdA at 10^−5 M blocked cell viability of L929sA and A549 for not more than 10%.

[3] = system: FLS cells (fibroblast-like synoviocytes); assay: Q-PCR/ELISA gene expression in primary FLS of RA patients; format: cell-based, human
Procedure: CpdA was synthesized as described previously. […] They were sacrificed and livers were isolated. […] Gene expression of HPRT was used for normalization. […] Gene expression of HPRT was used for normalization. […] Gene expression of HPRT was used for normalization. Statistical significance was determined by one way anova. […] Gene expression of HPRT was used for normalization. […] Gene expression of HPRT was used for normalization. Statistical significance was determined by one way anova. […] Statistical significance was determined with a Kruskal-Wallis test.
Western blot analysis was performed on total protein extracts with an anti-GR(H-300) antibody. The detection of ERK was used as a loading control. After 8 days of treatment liver samples were taken from the PBS, DEX (20 μg) or CpdA (300 μg) treated DBA/1 mice (FIG. 22B). Q-PCR was performed for the detection of GR in the different samples. Statistical significance was determined with a Mann-Whitney Test. FLS were pre-treated with solvent, DEX (1 μM) or CpdA (10 μM) for 1 hour (set-up 1) or 24 hours (set-up 2), as indicated in the figures. Afterwards, TNF (2000 units/ml) was added for 6 h. Western blot analysis was performed on total extracts with an anti-GR(H-300) antibody (FIG. 19A). Detection of ERK was used as a loading control. The Human Inflammation Array was incubated with medium of cultured FLS and developed following the manufacturer's instruction (FIG. 19B). Total RNA was isolated from the induced FLS and subjected to reverse transcriptase PCR. […] Gene expression of HPRT was used for normalization. Statistical significance was determined by one way anova. […] Since it has been proposed that the cellular sensitivity to GC is directly proportional to the receptor concentration, the mechanism of homologous down-regulation appears to drastically affect the cellular sensitivity of primary human RA-FLS to GC therapy. […] Such an effect can not be observed with CpdA. […] Therefore, it is not surprising that some patients who develop resistance to the therapeutic effects of GC, still display the unwanted effects associated with prolonged GC treatment. […] All publications and patent applications mentioned in this specification are herein incorporated by reference to the same extent as if each independent publication or patent application was specifically and individually indicated to be incorporated by reference. Other embodiments are within the scope of the claims.

## CNCC(Cl)c1ccc(OC(C)=O)cc1.Cl (centres unmarked) [CpdA, 2-(4-acetoxyphenyl)-2-chloro-N-methyl-ethylammonium chloride]
[1]
  Inhibition of the expression of E-selectin: inhibit the expression of E-selectin
[2]; 10^−4 M, 24 hours, FIG. 5A
  cytotoxicity at 24 h: 20%
[2]; 10^−4 M, 48 hours, FIG. 5B
  cytotoxicity at 48 h: 60%
[2]; 10^−5 M, 24 hours and 48 hours, FIGS. 5A and 5B
  cytotoxicity: ≤ 10%
[3]; 10 μM pre-treated 24 hours, TNF 2000 units/ml 6 h, FIG. 19
  Repression of TNF-induced MCP-1, IL-8 and IL-6 after prolonged treatment (set-up 2): still able to repress the TNF-induced expression of MCP-1, IL-8 and IL-6
[3]; 10 μM, 24 hours
  RANKL/OPG ratio: does not alter the RANKL/OPG ratio
[3]; 10 μM, 24 hours, FIG. 18
  Expression of cathepsin K: does not stimulate the expression of cathepsin K
[3]; 10 μM, 24 hours, FIG. 18, RANKL solvent versus CpdA p>0.05
  Expression of osteoclast differentiation markers M-CSF and RANKL: does not stimulate the expression
[3]; 10 μM, 24 hours, FIG. 18, solvent versus CpdA p>0.05
  Expression of OPG: does not down-regulate the expression of OPG
[3]; 10 μM, FIG. 20
  Transactivation function of GR (GRE-driven PCOLCE2 and GS expression): does not evoke the transactivation function of GR
[3]; 10 μM, TNF 2000 U/ml 6 hours, FIG. 17
  Expression of pro-inflammatory mediators (anti-inflammatory effect): anti-inflammatory effect
